Laboratory results reported in US20230399342A1 (Incyte Corporation, priority 2022, published 2023).

Key:
DGKζ = DGKζ (Homo sapiens (Human), UniProt Q13574); test: In vitro DGKζ inhibition assay (ADP-Glo); type: biochemical; details: His-tagged human recombinant enzyme, 0.4 nM DGK, 30 μM ATP, 20 μM DLG, 90 minute incubation
Procedure, shortened: (§1)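 His-tagged human DGKα (0.1 nM, 50 μM ATP) or DGKζ (0.4 nM, 30 μM ATP), each with 20 μM DLG, in Tris pH 7.5 buffer with CHAPS, Mg2+, Ca2+.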

DGKα = DGKα (Homo sapiens (Human), UniProt P23743); test: In vitro DGKα inhibition assay (ADP-Glo); type: biochemical; details: His-tagged human recombinant enzyme, 0.1 nM DGKα, 50 μM ATP, 20 μM DLG, 90 minute incubation
Procedure, shortened: as §1

Chain of DGKα (P23743 whole entry): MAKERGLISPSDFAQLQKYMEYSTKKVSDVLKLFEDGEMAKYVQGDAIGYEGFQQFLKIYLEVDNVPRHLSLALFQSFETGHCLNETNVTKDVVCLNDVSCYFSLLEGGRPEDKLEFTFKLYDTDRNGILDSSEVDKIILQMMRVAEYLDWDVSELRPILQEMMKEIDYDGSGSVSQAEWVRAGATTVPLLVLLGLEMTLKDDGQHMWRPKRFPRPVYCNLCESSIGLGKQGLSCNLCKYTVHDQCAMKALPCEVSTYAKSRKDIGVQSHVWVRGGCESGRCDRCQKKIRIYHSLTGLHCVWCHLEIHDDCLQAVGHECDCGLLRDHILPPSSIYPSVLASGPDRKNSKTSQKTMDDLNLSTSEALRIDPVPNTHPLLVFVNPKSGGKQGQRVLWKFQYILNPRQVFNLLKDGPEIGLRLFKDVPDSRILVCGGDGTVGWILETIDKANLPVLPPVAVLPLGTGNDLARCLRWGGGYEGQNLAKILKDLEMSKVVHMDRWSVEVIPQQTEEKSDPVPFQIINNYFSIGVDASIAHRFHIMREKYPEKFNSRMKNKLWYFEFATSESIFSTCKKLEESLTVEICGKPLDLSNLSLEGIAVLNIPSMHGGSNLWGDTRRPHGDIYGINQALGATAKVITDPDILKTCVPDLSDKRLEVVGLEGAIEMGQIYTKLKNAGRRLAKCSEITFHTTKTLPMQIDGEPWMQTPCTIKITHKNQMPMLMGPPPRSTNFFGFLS
Chain of DGKζ (Q13574 whole entry): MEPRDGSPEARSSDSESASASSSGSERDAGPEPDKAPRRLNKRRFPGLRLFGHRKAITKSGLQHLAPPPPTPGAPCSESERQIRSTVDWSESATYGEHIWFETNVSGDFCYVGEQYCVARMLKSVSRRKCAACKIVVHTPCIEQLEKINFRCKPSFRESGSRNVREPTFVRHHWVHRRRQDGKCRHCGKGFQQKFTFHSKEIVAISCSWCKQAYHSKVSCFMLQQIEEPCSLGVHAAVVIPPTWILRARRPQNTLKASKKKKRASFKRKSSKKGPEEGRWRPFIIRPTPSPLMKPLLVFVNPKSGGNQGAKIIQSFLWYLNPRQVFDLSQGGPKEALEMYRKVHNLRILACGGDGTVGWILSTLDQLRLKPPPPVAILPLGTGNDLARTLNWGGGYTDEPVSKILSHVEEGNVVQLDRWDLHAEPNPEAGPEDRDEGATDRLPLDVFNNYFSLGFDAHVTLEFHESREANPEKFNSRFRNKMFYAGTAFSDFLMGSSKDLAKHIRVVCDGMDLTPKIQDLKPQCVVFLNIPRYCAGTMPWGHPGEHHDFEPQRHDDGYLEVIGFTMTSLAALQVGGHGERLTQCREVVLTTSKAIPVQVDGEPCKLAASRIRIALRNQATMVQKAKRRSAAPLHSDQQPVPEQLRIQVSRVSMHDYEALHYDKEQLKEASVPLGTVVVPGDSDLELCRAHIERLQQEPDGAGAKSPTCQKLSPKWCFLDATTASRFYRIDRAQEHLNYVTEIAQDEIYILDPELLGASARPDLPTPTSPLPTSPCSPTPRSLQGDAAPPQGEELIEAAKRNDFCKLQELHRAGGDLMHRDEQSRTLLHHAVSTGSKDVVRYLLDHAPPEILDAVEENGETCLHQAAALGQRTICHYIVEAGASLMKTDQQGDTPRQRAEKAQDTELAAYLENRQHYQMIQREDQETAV

| IC50 (DGKζ) [nM] | IC50 (DGKα) [nM] | Structure (SMILES) |
| --- | --- | --- |
| > 2000 | ≤ 20 | C[C@@H]1CN(c2nc3nncn3c3sc(-c4cn[nH]c4)nc23)[C@@H](C)CN1C(c1ccc(F)cc1)c1ccc(F)cc1 [Example 5, 4-((2S,5R)-4-(Bis(4-fluorophenyl)methyl)-2,5-dimethylpiperazin-1-yl)-2-(1H-pyrazol-4-yl)thiazolo[4,5-e][1,2,4]triazolo[4,3-a]pyrimidine] |
| ≤ 20 | ≤ 20 | COc1ccc([C@H](C(C)C)N2C[C@H](C)N(c3nc4nncn4c4c3nc(C)n4C[C@@H]3CCCO3)C[C@H]2C)cc1 [Example 77, 4-((2S,5R)-4-((S)-1-(4-Methoxyphenyl)-2-methylpropyl)-2,5-dimethylpiperazin-1-yl)-2-methyl-1-(((S)-tetrahydrofuran-2-yl)methyl)-1H-[1,2,4]triazolo[3,4-b]purine] |
| ≤ 20 | ≤ 20 | Cc1nc2c(N3C[C@@H](C)N([C@@H](c4ccc(F)c(F)c4)C4CC(F)(F)C4)C[C@@H]3C)nc3nncn3c2n1C[C@@H]1CCCO1 [Example 47, 4-((2S,5R)-4-((R)-(3,3-difluorocyclobutyl)(3,4-difluorophenyl)methyl)-2,5-dimethylpiperazin-1-yl)-2-methyl-1-(((S)-tetrahydrofuran-2-yl)methyl)-1H-[1,2,4]triazolo[3,4-b]purine] |
| ≤ 20 | ≤ 20 | Cc1nc2c(N3C[C@@H](C)N([C@@H](c4cccc(Cl)c4)C(C)C)C[C@@H]3C)nc3nncn3c2n1C[C@@H]1CCCO1 [Example 97, 4-((2S,5R)-4-((R)-1-(3-chlorophenyl)-2-methylpropyl)-2,5-dimethylpiperazin-1-yl)-2-methyl-1-(((S)-tetrahydrofuran-2-yl)methyl)-1H-[1,2,4]triazolo[3,4-b]purine] |
| ≤ 20 | ≤ 20 | [2H]c1nc2c(N3C[C@@H](C)N(C(c4ccc(F)cc4)c4ccc(F)cc4)C[C@@H]3C)nc3nncn3c2n1CCN(C)C [Example 34, 2-(4-((2S,5R)-4-(Bis(4-fluorophenyl)methyl)-2,5-dimethylpiperazin-1-yl)-1H-[1,2,4]triazolo[3,4-b]purin-1-yl-2-d)-N,N-dimethylethan-1-amine] |
| ≤ 20 | ≤ 20 | Cc1nc2c(N3C[C@@H](C)N([C@H](c4ccc(C(F)F)cc4)C(C)C)C[C@@H]3C)nc3nncn3c2n1C[C@@H]1CCCO1 [Example 73, 4-((2S,5R)-4-((S)-1-(4-(Difluoromethyl)phenyl)-2-methylpropyl)-2,5-dimethylpiperazin-1-yl)-2-methyl-1-(((S)-tetrahydrofuran-2-yl)methyl)-1H-[1,2,4]triazolo[3,4-b]purine] |
| ≤ 20 | ≤ 20 | [2H]c1nc2c(N3C[C@@H](CC)N(C(c4ccc(F)cc4)c4ccc(F)cc4)C[C@@H]3CC)nc3nncn3c2n1CCN(C)C [Example 36, 2-(4-((2S,5R)-4-(Bis(4-fluorophenyl)methyl)-2,5-diethylpiperazin-1-yl)-1H-[1,2,4]triazolo[3,4-b]purin-1-yl-2-d)-N,N-dimethylethan-1-amine] |
| ≤ 20 | ≤ 20 | Cc1nc2c(N3C[C@@H](C)N([C@@H](c4ccc(C(F)(F)F)cc4F)C(C)C)C[C@@H]3C)nc3nncn3c2n1C[C@@H]1CCCO1 [Example 72, 4-((2S,5R)-4-((R)-1-(2-fluoro-4-(trifluoromethyl)phenyl)-2-methylpropyl)-2,5-dimethylpiperazin-1-yl)-2-methyl-1-(((S)-tetrahydrofuran-2-yl)methyl)-1H-[1,2,4]triazolo[3,4-b]purine] |
| ≤ 20 | ≤ 20 | CC[C@@H]1CN(c2nc3nncn3c3c2nc(C)n3C[C@@H]2CCCO2)[C@@H](C)CN1[C@@H](c1ccc(C(F)(F)F)cc1)C(C)C [Example 129, 4-((2S,5R)-5-Ethyl-2-methyl-4-((R)-2-methyl-1-(4-(trifluoromethyl)phenyl)propyl)piperazin-1-yl)-2-methyl-1-(((S)-tetrahydrofuran-2-yl)methyl)-1H-[1,2,4]triazolo[3,4-b]purine] |
| ≤ 20 | ≤ 20 | Cc1nc2c(N3C[C@@H](C)N([C@@H](c4cccc(F)c4)C(C)C)C[C@@H]3C)nc3nncn3c2n1C[C@@H]1CCCO1 [Example 95, 4-((2S,5R)-4-((R)-1-(3-fluorophenyl)-2-methylpropyl)-2,5-dimethylpiperazin-1-yl)-2-methyl-1-(((S)-tetrahydrofuran-2-yl)methyl)-1H-[1,2,4]triazolo[3,4-b]purine] |
| ≤ 20 | ≤ 20 | Cc1nc2c(N3C[C@@H]([C@H](C)O)N(C(c4ccc(F)cc4)c4ccc(F)cc4)C[C@@H]3C)nc3nncn3c2n1C[C@@H]1CCCO1 [Example 124, (S)-1-((2S,5S)-1-(bis(4-fluorophenyl)methyl)-5-methyl-4-(2-methyl-1-(((S)-tetrahydrofuran-2-yl)methyl)-1H-[1,2,4]triazolo[3,4-b]purin-4-yl)piperazin-2-yl)ethan-1-ol] |
| ≤ 20 | ≤ 20 | C[C@@H]1CN(c2nc3nncn3c3c2ncn3CCN(C)C)[C@@H](C)CN1C(c1ccc(F)c(Cl)c1)[C@H]1C[C@H](C(F)(F)F)C1 (stereo partly drawn) [Example 114, 2-(4-((2S,5R)-4-((3-chloro-4-fluorophenyl)((trans)-3-(trifluoromethyl)cyclobutyl)methyl)-2,5-dimethylpiperazin-1-yl)-1H-[1,2,4]triazolo[3,4-b]purin-1-yl)-N,N-dimethylethan-1-amine] |
| ≤ 20 | ≤ 20 | CC[C@@H]1CN(c2nc3nncn3c3c2nc(C)n3C[C@@H]2CCCO2)[C@@H](C)CN1[C@@H](c1ccc(OC(F)F)cc1)C(C)C [Example 127, 4-((2S,5R)-4-((R)-1-(4-(difluoromethoxy)phenyl)-2-methylpropyl)-5-ethyl-2-methylpiperazin-1-yl)-2-methyl-1-(((S)-tetrahydrofuran-2-yl)methyl)-1H-[1,2,4]triazolo[3,4-b]purine] |
| 20 to 200 | ≤ 20 | COC[C@@H]1CN(c2nc3nncn3c3scnc23)[C@@H](C)CN1C(c1ccc(F)cc1)c1ccc(F)cc1 [Example 13, 4-((2S,5S)-4-(Bis(4-fluorophenyl)methyl)-5-(methoxymethyl)-2-methylpiperazin-1-yl)thiazolo[4,5-e][1,2,4]triazolo[4,3-a]pyrimidine] |
| ≤ 20 | ≤ 20 | COc1cccc([C@H](C(C)C)N2C[C@H](C)N(c3nc4nncn4c4c3nc(C)n4C[C@@H]3CCCO3)C[C@H]2C)c1 [Example 98, 4-((2S,5R)-4-((S)-1-(3-Methoxyphenyl)-2-methylpropyl)-2,5-dimethylpiperazin-1-yl)-2-methyl-1-(((S)-tetrahydrofuran-2-yl)methyl)-1H-[1,2,4]triazolo[3,4-b]purine] |
| ≤ 20 | ≤ 20 | C[C@@H]1CN(c2nc3nncn3c3c2ncn3C[C@@H]2CCCO2)[C@@H](C)CN1C(c1ccc(Cl)cc1)c1ccc(Cl)cc1 [Example 93, 4-((2S,5R)-4-(Bis(4-chlorophenyl)methyl)-2,5-dimethylpiperazin-1-yl)-1-(((S)-tetrahydrofuran-2-yl)methyl)-1H-[1,2,4]triazolo[3,4-b]purine] |
| ≤ 20 | ≤ 20 | Cc1nc2c(N3C[C@@H](C)N([C@H](c4cccc(C(F)(F)F)c4)C(C)C)C[C@@H]3C)nc3nncn3c2n1C[C@@H]1CCCO1 [Example 69, 4-((2S,5R)-2,5-Dimethyl-4-((S)-2-methyl-1-(3-(trifluoromethyl)phenyl)propyl)piperazin-1-yl)-2-methyl-1-(((S)-tetrahydrofuran-2-yl)methyl)-1H-[1,2,4]triazolo[3,4-b]purine] |
| ≤ 20 | ≤ 20 | CC[C@@H]1CN(c2nc3nncn3c3c2ncn3CCN(C)C)[C@@H](C)CN1C(c1ccc(F)cc1)c1ccc(F)cc1 [Example 37, 2-(4-((2S,5R)-4-(Bis(4-fluorophenyl)methyl)-5-ethyl-2-methylpiperazin-1-yl)-1H-[1,2,4]triazolo[3,4-b]purin-1-yl)-N,N-dimethylethan-1-amine] |
| ≤ 20 | ≤ 20 | CC[C@@H]1CN(c2nc3nncn3c3c2nc(C)n3C[C@@H]2CCCO2)[C@@H](C)CN1C(CO)(c1ccc(F)cc1)c1ccc(F)cc1 [Example 125, 2-((2R,5S)-2-Ethyl-5-methyl-4-(2-methyl-1-(((S)-tetrahydrofuran-2-yl)methyl)-1H-[1,2,4]triazolo[3,4-b]purin-4-yl)piperazin-1-yl)-2,2-bis(4-fluorophenyl)ethan-1-01] |
| ≤ 20 | 20 to 200 | C[C@H]1CN(C(c2ccc(F)cc2)c2ccc(F)cc2)[C@H](CC#N)CN1c1nc2nnc(C3CC3)n2c2scnc12 [Example 15, 2-((2R,5S)-1-(Bis(4-fluorophenyl)methyl)-4-(8-cyclopropylthiazolo[4,5-e][1,2,4]triazolo[4,3-a]pyrimidin-4-yl)-5-methylpiperazin-2-yl)acetonitrile] |
| ≤ 20 | ≤ 20 | Cc1nc2c(N3C[C@@H](C)N(C(c4ccc(C(F)(F)F)cc4)C4CCC(F)(F)CC4)C[C@@H]3C)nc3nncn3c2n1C[C@@H]1CCCO1 (stereo partly drawn) [Example 117, 4-((2S,5R)-4-((4,4-Difluorocyclohexyl)(4-(trifluoromethyl)phenyl)methyl)-2,5-dimethylpiperazin-1-yl)-2-methyl-1-(((S)-tetrahydrofuran-2-yl)methyl)-1H-[1,2,4]triazolo[3,4-b]purine] |
| ≤ 20 | ≤ 20 | CC[C@@H]1CN(c2nc3nncn3c3c2nc(C)n3C[C@@H]2CCCO2)[C@@H](C)CN1C(c1ccc(F)cc1)c1ccc(F)cc1 [Example 20, 4-((2S,5R)-4-(Bis(4-fluorophenyl)methyl)-5-ethyl-2-methylpiperazin-1-yl)-2-methyl-1-(((S)-tetrahydrofuran-2-yl)methyl)-1H-[1,2,4]triazolo[3,4-b]purine] |
